Five compounds from patent US20250195521A1 (Revolution Medicines, Inc., priority 2020, published 2025) can be followed below.

Like-named read-outs stand apart in the source and are kept apart here.

The IC50 is the point on the concentration scale where inhibition reaches its midpoint. As a reminder, the EC50 is the concentration needed to bring the measured effect to its halfway point.

Assay [1] relates to NCI-H358 cells (K-Ras G12C). Kind of assay: CellTiter-Glo cell viability, NCI-H358. It counts as cell-based, human. As to conditions: K-Ras G12C, 5-day treatment, read-out: H358 Cell Viability IC50. In a few lines: (§1)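 Five-day treatment of K-Ras mutant cells with directly dispensed compound; ATP-based luminescence endpoint. Percent of DMSO signal fit to four-parameter logistic curve.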
(Cellular ATP, detected with luciferase, serves as a proxy for viable cell number.)

Assay [2] relates to Capan-1 cells (K-Ras G12V). Kind of assay: CellTiter-Glo cell viability, Capan-1. As to conditions: K-Ras G12V, 5-day treatment, read-out: Capan-1 Cell Viability IC50. The assay is classed as cell-based, human. In a few lines: as §1
The target of the next assay is KRAS G12D (Homo sapiens (Human), UniProt P01116+P62937, G12D). The assay is described as follows: Ras-Raf disruption/FRET/MOA assay (BRAF RBD, Cyclophilin A). The assay is classed as biochemical. As to conditions: read-out: KRAS G12D FRET IC50. In a few lines: (§2)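 Measured: compound-facilitated Cyclophilin A:Ras complex blocking RAF RBD binding. Conditions: 12.5 nM Ras-GMPPNP, 50 nM BRAF RBD, 25 μM CypA, 3 h plus 1.5 h detection. Output: IC50 from TR-FRET ratio.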
Sequence of KRAS G12D (P01116 other isoform, or with tags, fused parts or gaps G12D): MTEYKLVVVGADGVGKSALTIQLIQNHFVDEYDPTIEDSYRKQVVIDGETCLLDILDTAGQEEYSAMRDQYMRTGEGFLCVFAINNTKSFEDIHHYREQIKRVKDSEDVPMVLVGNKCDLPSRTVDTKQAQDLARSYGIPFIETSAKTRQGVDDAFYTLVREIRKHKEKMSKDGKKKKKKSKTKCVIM
Sequence of KRAS G12D (P62937 whole entry): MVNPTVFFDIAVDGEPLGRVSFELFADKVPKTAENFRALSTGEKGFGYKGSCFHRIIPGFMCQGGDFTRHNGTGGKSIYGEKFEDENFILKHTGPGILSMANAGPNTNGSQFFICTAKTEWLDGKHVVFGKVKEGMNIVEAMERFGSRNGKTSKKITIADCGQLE

Another assay deals with KRAS G13C (Homo sapiens (Human), UniProt P01116+P62937, G13C). The description is as above. It counts as biochemical. As to conditions: read-out: KRAS G13C FRET IC50. In a few lines:
as §2

A further assay addresses KRAS Q61H (Homo sapiens (Human), UniProt P01116+P62937, Q61H). The description is as above. It counts as biochemical. In a few lines:
as §2

Another assay concerns the target NRAS Q61K (Homo sapiens (Human), UniProt P01111+P62937, Q61K). Described as above. It counts as biochemical. In a few lines:
(§3)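 TR-FRET readout: anti-His Eu-W1024 (10 nM) and anti-GST allophycocyanin (50 nM) added after 3 h, 25° C compound incubation, then 1.5 h more. Decrease in FRET ratio versus DMSO wells marks Ras:RAF disruption; IC50 reported.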

The target in the next assay is NRAS Q61R (Homo sapiens (Human), UniProt P01111+P62937, Q61R). The description is as above. The assay is classed as biochemical. In a few lines:
as §3

In a further assay the target is NRAS WT (Homo sapiens (Human), UniProt P01111+P62937). Described as above. It counts as biochemical. In outline:
as §3

Assay [3] relates to K-Ras G12C (NCI-H358 cells). Kind of assay: Potency assay: pERK in NCI-H358 cells. It counts as cell-based, human. To be noted: NCI-H358 cells, 4 hours, read-out: pERK EC50 (H358 KRAS G12C). In outline: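 Cells plated the day before were exposed for 4 h at 37° C, 5% CO2 to a 10-point, 3-fold DMSO dilution series (10 mM top stock), in duplicate. Phospho-ERK was read by AlphaLISA SureFire Ultra or by In-Cell Western with DRAQ5 DNA stain, and IC50 came from a 4-parameter sigmoidal fit.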

The target in the next assay is KRAS G12C (Homo sapiens (Human), UniProt P01116+P62937, G12C). Kind of assay: Ras-Raf disruption/FRET/MOA assay (BRAF RBD, Cyclophilin A). It counts as biochemical. To be noted: read-out: KRAS G12C FRET IC50. In outline:
as §2

In the next assay the target is KRAS G12S (Homo sapiens (Human), UniProt P01116+P62937, G12S). The description is as above. It counts as biochemical. As to conditions: read-out: KRAS G12S FRET IC50. In outline: as §2
Sequence of KRAS G12S (P01116 other isoform, or with tags, fused parts or gaps G12S): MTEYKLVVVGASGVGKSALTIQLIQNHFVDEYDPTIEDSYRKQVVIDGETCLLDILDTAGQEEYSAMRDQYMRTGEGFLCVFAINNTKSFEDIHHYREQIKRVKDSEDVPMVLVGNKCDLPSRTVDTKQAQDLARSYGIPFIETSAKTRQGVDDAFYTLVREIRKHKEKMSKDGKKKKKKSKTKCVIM
Sequence of KRAS G12S (P62937 whole entry): as the sequence (P62937 whole entry) above
For another assay, the target named is KRAS G12V (Homo sapiens (Human), UniProt P01116+P62937, G12V). Described as above. To be noted: read-out: KRAS G12V FRET IC50. The assay is classed as biochemical. In outline:
as §2

For the next assay, the target named is KRAS G13D (Homo sapiens (Human), UniProt P01116+P62937, G13D). Described as above. It counts as biochemical. To be noted: read-out: KRAS G13D FRET data IC50. In outline:
as §2

The next assay addresses KRAS WT (Homo sapiens (Human), UniProt P01116+P62937). The description is as above. It counts as biochemical. To be noted: read-out: KRAS WT FRET data IC50. In a few lines:
as §2

Another assay concerns the target NRAS G12C (Homo sapiens (Human), UniProt P01111+P62937, G12C). Described as above. It counts as biochemical. To be noted: read-out: NRAS G12C FRET data IC50. In outline:
as §3

Sequence of KRAS G12C (P01116-2 other isoform, or with tags, fused parts or gaps G12C): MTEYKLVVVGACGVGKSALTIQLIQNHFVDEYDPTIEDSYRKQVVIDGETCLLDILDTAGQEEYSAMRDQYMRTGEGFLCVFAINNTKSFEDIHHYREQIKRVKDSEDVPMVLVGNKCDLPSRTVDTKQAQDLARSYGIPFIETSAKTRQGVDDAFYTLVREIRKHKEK
Sequence of KRAS G12C (P62937 whole entry): as the sequence (P62937 whole entry) above
Sequence of NRAS WT (P01111 whole entry): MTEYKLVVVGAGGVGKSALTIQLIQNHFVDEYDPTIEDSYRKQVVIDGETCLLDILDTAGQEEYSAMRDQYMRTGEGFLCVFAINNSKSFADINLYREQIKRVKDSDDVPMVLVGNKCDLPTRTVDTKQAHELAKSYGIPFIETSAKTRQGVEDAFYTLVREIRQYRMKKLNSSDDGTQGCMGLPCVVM
Sequence of NRAS WT (P62937 whole entry): as the sequence (P62937 whole entry) above
Sequence of KRAS G13D (P01116 other isoform, or with tags, fused parts or gaps G13D): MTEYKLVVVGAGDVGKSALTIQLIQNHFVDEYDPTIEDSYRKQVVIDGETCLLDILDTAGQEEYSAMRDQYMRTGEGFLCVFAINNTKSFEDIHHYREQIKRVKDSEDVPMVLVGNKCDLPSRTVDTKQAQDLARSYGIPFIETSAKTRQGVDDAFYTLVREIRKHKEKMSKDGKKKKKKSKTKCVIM
Sequence of KRAS G13D (P62937 whole entry): as the sequence (P62937 whole entry) above
Sequence of NRAS Q61K (P01111 whole entry Q61K): as the sequence (P01111 whole entry) above, with Q61K counted along it
Sequence of NRAS Q61K (P62937 whole entry): as the sequence (P62937 whole entry) above
Sequence of KRAS Q61H (P01116 other isoform, or with tags, fused parts or gaps Q61H): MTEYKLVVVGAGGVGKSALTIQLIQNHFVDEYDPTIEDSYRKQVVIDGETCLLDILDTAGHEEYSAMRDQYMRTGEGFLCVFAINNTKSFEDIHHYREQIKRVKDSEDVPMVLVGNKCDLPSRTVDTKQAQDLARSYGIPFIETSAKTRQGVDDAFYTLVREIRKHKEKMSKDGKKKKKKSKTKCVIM
Sequence of KRAS Q61H (P62937 whole entry): as the sequence (P62937 whole entry) above
Sequence of NRAS G12C (P01111 whole entry G12C): as the sequence (P01111 whole entry) above, with G12C counted along it
Sequence of NRAS G12C (P62937 whole entry): as the sequence (P62937 whole entry) above
Sequence of KRAS WT (P01116 other isoform, or with tags, fused parts or gaps): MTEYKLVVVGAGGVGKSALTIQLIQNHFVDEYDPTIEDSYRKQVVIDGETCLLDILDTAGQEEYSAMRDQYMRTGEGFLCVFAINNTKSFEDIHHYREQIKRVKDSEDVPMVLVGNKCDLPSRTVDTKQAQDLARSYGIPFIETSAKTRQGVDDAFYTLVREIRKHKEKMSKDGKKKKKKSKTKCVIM
Sequence of KRAS WT (P62937 whole entry): as the sequence (P62937 whole entry) above
Sequence of KRAS G12V (P01116 other isoform, or with tags, fused parts or gaps G12V): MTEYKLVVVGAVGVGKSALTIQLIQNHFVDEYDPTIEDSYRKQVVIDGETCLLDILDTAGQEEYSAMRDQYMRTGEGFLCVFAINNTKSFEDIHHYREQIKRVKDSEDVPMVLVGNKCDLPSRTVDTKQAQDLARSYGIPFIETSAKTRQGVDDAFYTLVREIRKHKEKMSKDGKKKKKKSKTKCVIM
Sequence of KRAS G12V (P62937 whole entry): as the sequence (P62937 whole entry) above
Sequence of NRAS Q61R (P01111 whole entry Q61R): as the sequence (P01111 whole entry) above, with Q61R counted along it
Sequence of NRAS Q61R (P62937 whole entry): as the sequence (P62937 whole entry) above
Sequence of KRAS G13C (P01116 other isoform, or with tags, fused parts or gaps G13C): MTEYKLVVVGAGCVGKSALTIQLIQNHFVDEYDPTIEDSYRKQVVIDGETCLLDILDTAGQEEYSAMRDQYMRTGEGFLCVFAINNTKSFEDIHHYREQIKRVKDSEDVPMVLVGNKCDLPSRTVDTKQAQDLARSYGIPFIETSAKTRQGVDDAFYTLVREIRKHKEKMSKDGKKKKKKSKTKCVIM
Sequence of KRAS G13C (P62937 whole entry): as the sequence (P62937 whole entry) above

As for `CCn1c(-c2cccnc2[C@H](C)OC)c2c3cc(ccc31)-c1cc(O)cc(c1)C[C@H](NC(=O)[C@H](C(C)C)N(C)C(=O)N1CC(N(C)C)C1)C(=O)N1CCC[C@H](N1)C(=O)OCC(C)(C)C2` [Compound A170], the IC50 fell in the range of 10 to 100 nM in assay [1]; 10 to 100 nM in assay [2]; 1000 to 10000 nM on KRAS G12D; 100 to 1000 nM on KRAS G13C; 100 to 1000 nM at KRAS Q61H; 10 to 100 nM against NRAS Q61K. Moreover, the IC50 against NRAS Q61R and on NRAS WT was 100 to 1000 nM in each case. For the same compound, the EC50 in assay [3] was less than 5000 nM.
`CCn1c(-c2cccnc2[C@H](C)OC)c2c3cc(ccc31)-c1csc(n1)C[C@H](NC(=O)N1CCOCC1)C(=O)N1CCC[C@H](N1)C(=O)OCC(C)(C)C2` [Compound A270]: the IC50 in [1] (Homo sapiens, NCI-H358, 120 h) lay within 100 to 1000 nM; in assay [2] (Homo sapiens, CAPAN-1, 120 h), 1000 to 10000 nM; at KRAS G12C, 100 to 1000 nM; at KRAS G12D, 100 to 1000 nM; at KRAS G12S it was 100 to 1000 nM; at KRAS G12V, 100 to 1000 nM. The IC50 at KRAS G13C, at KRAS G13D, at KRAS Q61H, on KRAS WT, at NRAS G12C and at NRAS Q61K was 100 to 1000 nM in each case. Moreover, the IC50 on NRAS Q61R and at NRAS WT was 100 to 1000 nM throughout.
As to `CCn1c(-c2cccnc2[C@H](C)OC)c2c3cc(ccc31)-c1csc(n1)C[C@H](NC(=O)[C@H](C(C)C)N(C)C(=O)N1CC3(CCCN(C)C3=O)C1)C(=O)N1CCC[C@H](N1)C(=O)OCC(C)(C)C2` [Compound A453], the concentration for half-maximal inhibition (IC50) in assay [1] (Homo sapiens, NCI-H358, 120 h) is 1000 to 10000 nM; in assay [2] (Homo sapiens, CAPAN-1, 120 h) it was 1000 to 10000 nM; on KRAS G12C, 100 to 1000 nM; on KRAS G12D it was greater than 10000 nM; on KRAS G12S, 1000 to 10000 nM; on KRAS G12V it was 1000 to 10000 nM. In addition, the IC50 at KRAS G13C fell in the range of 1000 to 10000 nM; against KRAS Q61H, 100 to 1000 nM; on KRAS WT, 1000 to 10000 nM; at NRAS G12C, 100 to 1000 nM; against NRAS Q61K it was 100 to 1000 nM; against NRAS Q61R it was 100 to 1000 nM. On NRAS WT, this compound displayed an IC50 of 1000 to 10000 nM.
As for `CCn1c(-c2cccnc2[C@H](C)OC)c2c3cc(ccc31)-c1csc(n1)C[C@H](NC(=O)[C@H](C(C)C)N(C)C(=O)N1CCOCC13COC3)C(=O)N1CCC[C@H](N1)C(=O)OCC(C)(C)C2` [Compound A474], the IC50 in [2] (Homo sapiens, CAPAN-1, 120 h) was 10 to 100 nM; on KRAS G12C it was 100 to 1000 nM; at KRAS G12D, 1000 to 10000 nM; on KRAS G12S it was 100 to 1000 nM; on KRAS G12V it was 100 to 1000 nM; at KRAS G13C, 100 to 1000 nM. In addition, the IC50 at KRAS G13D fell in the range of 1000 to 10000 nM; against KRAS Q61H, 10 to 100 nM; at KRAS WT it was 100 to 1000 nM; on NRAS G12C, 100 to 1000 nM; at NRAS Q61K, 100 to 1000 nM; against NRAS Q61R, 100 to 1000 nM. Moreover, the IC50 on NRAS WT is 100 to 1000 nM. For the same compound, the EC50 in assay [3] (Homo sapiens) is less than 5000 nM.
On to `CCn1c(-c2cc(N3CCN(C)CC3)cnc2[C@H](C)OC)c2c3cc(ccc31)-c1csc(n1)C[C@H](NC(=O)[C@H](C(C)C)N(C)C(=O)[C@@H]1OCC[C@@H]1c1cccnc1)C(=O)N1CCC[C@H](N1)C(=O)OCC(C)(C)C2` [Compound A490], for which the IC50 in assay [2] (Homo sapiens, CAPAN-1, 120 h) fell in the range of 10 to 100 nM; at KRAS G12C, 100 to 1000 nM; on KRAS G12D, 1000 to 10000 nM; at KRAS G12S, 100 to 1000 nM; on KRAS G12V it was 100 to 1000 nM; at KRAS G13C, 100 to 1000 nM. Moreover, the IC50 at KRAS G13D was in the range of 1000 to 10000 nM; against KRAS Q61H it was 100 to 1000 nM; on KRAS WT it was 100 to 1000 nM; on NRAS G12C, 100 to 1000 nM; against NRAS Q61K, 100 to 1000 nM; on NRAS Q61R, 100 to 1000 nM. The IC50 against NRAS WT is 100 to 1000 nM. The EC50 in assay [3] (Homo sapiens) is less than 5000 nM.
